pIC50: −log10 of the molar value. Counter-ions that a name gives are not always drawn. Like-named read-outs stand apart in the source and are kept apart here.
Tests used:
IMP-1 = IMP-1 (Serratia marcescens, UniProt P52699); test: biochemical; type: biochemical
How it was run: (§1)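 Fluorescence assay of metallo-β-lactamase activity using CCF2-FA, a cephalosporin-linked 7-hydroxycoumarin–fluorescein substrate. Inhibitor, enzyme and substrate were incubated together for 2 hours at 25° C. IC50 came from a 4-parameter fit of inhibition versus inhibitor concentration.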

NDM-1 = NDM-1 (Klebsiella pneumoniae, UniProt C7C422); test: biochemical; type: biochemical; conditions: CCF2-FA substrate, 2 hours at 25° C; read-out: NDM-1 IC50
How it was run: as §1

VIM-1 = VIM-1 (Pseudomonas aeruginosa (strain ATCC 15692 / DSM 22644 / CIP 104116 / JCM 14847 / LMG 12228 / 1C / PRS 101 / PAO1), UniProt A0A0F7KYQ8); test: biochemical; conditions: CCF2-FA substrate, 2 hours at 25° C
How it was run: as §1

[1] = test system: Escherichia coli expressing NDM-1 (CLB30005, CLB30016); type: cell-based; conditions: with imipenem 1 μg/ml, 95% inhibition of bacterial growth; for Escherichia coli MITC95: NDM-1 (CLB30016)
How it was run: (§2)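 Clinical strains grown overnight on blood agar, then diluted 1:100 in 1.1× CAMHB and exposed to test compound with imipenem at 1 μg/ml. Incubation was 22–24 h at 35° C; growth was read by absorbance to find the compound concentration restoring imipenem susceptibility.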

[2] = test system: Klebsiella pneumoniae expressing VIM-1 (IHMA599644); type: cell-based; conditions: with imipenem 1 μg/ml, 95% inhibition of bacterial growth; for Klebsiella pneumoniae MITC95: VIM-1 (IHMA599644)
How it was run: as §2

[3] = test system: Serratia marcescens expressing IMP-1 (CL5741); type: cell-based; conditions: with imipenem 1 μg/ml, 95% inhibition of bacterial growth; for Serratia marcescens MITC95: IMP-1 (CL5741)
How it was run: as §2

[4] = test system: P. aeruginosa expressing IMP-1, efflux+ (MB9798); type: cell-based, Pseudomonas aeruginosa; conditions: for P. aeruginosa expressing IMP-1, efflux+ (MB9798) MITC95: imipenem at 2 μg/mL, in the presence of a class A, C, D serine β-lactamase inhibitor closely related to relebactam; for Efflux ratio: ratio MITC95 PA_9798/MITC95 PA_9799
Description: (§3) The strain background is Pseudomonas aeruginosa PAO1.

[5] = test system: P. aeruginosa expressing IMP-1, efflux− (MB9799); test: Efflux: concentration of MBL inhibitor which restores susceptibility to imipenem; type: cell-based, Pseudomonas aeruginosa; conditions: imipenem at 2 μg/mL, in the presence of a class A, C, D serine β-lactamase inhibitor closely related to relebactam
Description: as §3

[6] = CCF2-FA substrate, 2 hours at 25° C, read-out: IMP-1 IC50

Sequence of IMP-1 (P52699 whole entry, looked up, species assumed): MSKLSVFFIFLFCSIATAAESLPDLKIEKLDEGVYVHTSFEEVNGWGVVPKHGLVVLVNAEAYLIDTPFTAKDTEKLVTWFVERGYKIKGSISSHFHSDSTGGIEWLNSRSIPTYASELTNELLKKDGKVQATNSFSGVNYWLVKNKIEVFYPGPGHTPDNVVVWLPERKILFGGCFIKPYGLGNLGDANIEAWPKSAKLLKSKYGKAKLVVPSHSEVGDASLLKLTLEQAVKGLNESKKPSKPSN
Sequence of NDM-1 (C7C422 whole entry, looked up, species assumed): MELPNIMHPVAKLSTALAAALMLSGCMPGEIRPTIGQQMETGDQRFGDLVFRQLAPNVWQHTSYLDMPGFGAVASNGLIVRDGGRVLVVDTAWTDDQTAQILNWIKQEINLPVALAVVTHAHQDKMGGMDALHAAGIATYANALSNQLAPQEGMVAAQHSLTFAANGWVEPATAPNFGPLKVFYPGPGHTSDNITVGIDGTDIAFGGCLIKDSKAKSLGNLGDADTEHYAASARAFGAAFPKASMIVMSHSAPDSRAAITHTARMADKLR

| Compound | pIC50 (IMP-1; [6]) | pIC50 (NDM-1) | pIC50 (VIM-1) | Escherichia coli MITC95 [1] | Klebsiella pneumoniae MITC95 [2] | Serratia marcescens MITC95 [3] | P. aeruginosa expressing IMP-1, efflux+ (MB9798) MITC95 [4] | Efflux ratio [4] | P. aeruginosa expressing IMP-1, efflux− (MB9799) MITC95 [5] | Escherichia coli expressing NDM-1 (CLB30016) MITC95 [1] | Klebsiella pneumoniae expressing VIM-1 (IHMA599644) MITC95 [2] | Serratia marcescens expressing IMP-1 (CL5741) MITC95 [3] | pIC50 (IMP-1) |
| --- | --- | --- | --- | --- | --- | --- | --- | --- | --- | --- | --- | --- | --- |
| NCCc1nc2c(-c3ccc(S(=O)(=O)CCN)c(S(N)(=O)=O)c3-c3nn[nH]n3)cccc2[nH]1 [Example 306, 3-(2-(2-aminoethyl)-1H-benzo[d]imidazol-4-yl)-6-((2-aminoethyl)sulfonyl)-2-(2H-tetrazol-5-yl) benzenesulfonamide] | 8.55 | 9.07 | 9.43 | 0.7813 µM | 1.563 µM | 0.7813 µM | 1.563 µM | 2.00 | 0.7813 µM |  |  |  |  |
| NCCS(=O)(=O)c1ccc(-c2cnc(N)c(C(=O)N[C@H]3CCNC3)c2)c(-c2nn[nH]n2)c1S(N)(=O)=O [Example 336, (S)-2-Amino-5-(4-((2-aminoethyl)sulfonyl)-3-sulfamoyl-2-(2H-tetrazol-5-yl)phenyl)-N-(pyrrolidin-3-yl)nicotinamide] | 8.02 | 8.20 | 8.45 | 0.7813 µM | 3.125 µM | 1.563 µM | 12.5 µM | 8.00 | 1.563 µM |  |  |  |  |
| NCCS(=O)(=O)c1ccc(-c2cnc(O)nc2)c(-c2nnn[nH]2)c1S(N)(=O)=O.O=C(O)C(F)(F)F [Example 137, 2-((4-(2-hydroxypyrimidin-5-yl)-2-sulfamoyl-3-(1H-tetrazol-5-yl)phenyl)sulfonyl)ethanaminium 2,2,2-trifluoroacetate] | 7.49 | 7.77 | 7.63 |  |  |  | 25 µM | 15.99 | 1.563 µM | 0.7813 µM | 3.125 µM | 1.563 µM |  |
| NS(=O)(=O)c1c(S(=O)(=O)C2CN(C(=O)NC3CC3)C2)ccc(-c2ccc(NS(=O)(=O)C3CC3)cc2)c1-c1nn[nH]n1 [Example 245, 3-((4′-(Cyclopropanesulfonamido)-3-sulfamoyl-2-(2H-tetrazol-5-yl)-[1,1′-biphenyl]-4-yl)sulfonyl)-N-cyclopropylazetidine-1-carboxamide] | 9.90 | 9.41 | 9.66 | 25 µM | 50 µM | 25 µM | 50 µM | 8.00 | 6.25 µM |  |  |  |  |
| COC(=O)c1cccc(-c2ccc(S(=O)(=O)CCN)c(S(N)(=O)=O)c2-c2nn[nH]n2)c1NCCN [Example 341, Methyl 2-((2-aminoethyl)amino)-4′-((2-aminoethyl)sulfonyl)-3′-sulfamoyl-2′-(2H-tetrazol-5-yl)-[1,1′-biphenyl]-3-carboxylate] | 7.79 | 8.40 | 8.35 | 1.563 µM | 3.125 µM | 3.125 µM | 25 µM | 15.99 | 1.563 µM |  |  |  |  |
| NS(=O)(=O)c1c(S(=O)(=O)C2CNC2)ccc([C@H]2CC[C@@H](N)CC2)c1-c1nnn[nH]1 [Example 213, 3-((1s,4s)-4-aminocyclohexyl)-6-(azetidin-3-ylsulfonyl)-2-(1H-tetrazol-5-yl) benzenesulfonamide] | 7.17 | 7.89 | 8.15 |  |  |  | 6.25 µM | 4.00 | 1.563 µM | 1.563 µM | 3.125 µM | 1.563 µM |  |
| Nc1cc(-c2cc(-c3ccc(S(=O)(=O)C4CNC4)c(S(N)(=O)=O)c3-c3nnn[nH]3)ccn2)ccn1 [Example 311, 3-(2′-amino-[2,4′-bipyridin]-4-yl)-6-(azetidin-3-ylsulfonyl)-2-(1H-tetrazol-5-yl)benzenesulfonamide] | 8.63 | 9.04 | 9.50 | 3.125 µM | 3.125 µM | 1.563 µM | 50 µM | 31.99 | 1.563 µM |  |  |  |  |
| CS(=O)(=O)N1CCC(S(=O)(=O)c2ccc(-c3cccc4nc(N)[nH]c34)c(-c3nn[nH]n3)c2S(N)(=O)=O)CC1 [Example 45, 3-(2-amino-3H-benzo[d]imidazol-4-yl)-6-(1-(methylsulfonyl)piperidin-4-ylsulfonyl)-2-(2H-tetrazol-5-yl)benzenesulfonamide] | 8.77 | 9.54 | 9.87 |  |  |  | 50 µM | 16.00 | 3.125 µM | 25 µM | 6.25 µM | 6.25 µM |  |
| NS(=O)(=O)c1c(S(=O)(=O)C2CCNCC2)ccc([C@H]2CC[C@@H](N)CC2)c1-c1nnn[nH]1 [Example 208, 3-((1s,4s)-4-aminocyclohexyl)-6-(piperidin-4-ylsulfonyl)-2-(1H-tetrazol-5-yl) benzenesulfonamide] | 6.91 | 7.69 | 7.73 |  |  |  | 6.25 µM | 2.00 | 3.125 µM | 1.563 µM | 6.25 µM | 3.125 µM |  |
| NCCS(=O)(=O)c1ccc(-c2ccccc2NC(=O)CN)c(-c2nn[nH]n2)c1S(N)(=O)=O [Example 340, 2-Amino-N-(4′-((2-aminoethyl)sulfonyl)-3′-sulfamoyl-2′-(2H-tetrazol-5-yl)-[1,1′-biphenyl]-2-yl)acetamide] | 6.97 | 7.61 | 8.09 | 1.563 µM | 3.125 µM | 3.125 µM | 12.5 µM | 4.00 | 3.125 µM |  |  |  |  |
| NCCS(=O)(=O)c1ccc(-c2cncc3sc(N)nc23)c(-c2nn[nH]n2)c1S(N)(=O)=O [Example 81, 6-((2-aminoethyl)sulfonyl)-3-(2-aminothiazolo[5,4-c]pyridin-7-yl)-2-(2H-tetrazol-5-yl)benzenesulfonamide hydrochloride] |  | 9.54 | 9.45 |  |  |  | 0.7813 µM | 1.00 | 0.7813 µM | 0.7813 µM | 3.125 µM | 1.563 µM | 9.57 |

Source: US10227331B2 (priority 2015, dated 2019)
